Test results: patent publication US8716438B2, “Matricryptic ECM peptides for tissue reconstruction” (University of Pittsburgh—Of the Commonwealth System of …, priority 2009, dated 2014)

What was measured:
[1] = system: human perivascular stem cells; experiment: Boyden chamber chemotaxis of human perivascular stem cells; format: cell-based; conditions: Neuro Probe 48-well chamber, 3 hours, varying concentrations
Description: To confirm the chemotactic activity for progenitor cells within ECM degradation products, human perivascular stem cells were assessed in vitro in a Boyden chamber. The peptides IAGVGGEKSGGF (Peptide 1, SEQ ID NO: 1) and GPVGPSGPPGK (Peptide 2, SEQ ID NO: 2) were tested.
Perivascular stem cells were isolated from human muscle and propagated in culture as previously described (Crisan M, Yap S, Casteilla L, et al. A perivascular origin for mesenchymal stem cells in multiple human organs. Cell Stem Cell. 2008; 3:301-313).
Perivascular stem cells were cultured in Dulbecco's Modified Eagle's Medium (DMEM) supplemented with 20% fetal calf serum (FCS), 2 mM glutamine, 100 U/ml penicillin, and 100 μg/ml streptomycin in […] at 37° C.
Cultures at passages 10-12 and 50-70% confluence were starved in serum-free DMEM supplemented with 0.5% heat inactivated (FCS) for 14-17 hours. After starvation, cells were harvested in 0.25% trypsin and 0.53 mM EDTA, centrifuged, and resuspended in DMEM with 0.5% heat inactivated FCS at a concentration of 6×10^5 cells/ml for 1 hour. […] After 3 hours, cells facing the upper chamber on the filter were scraped off, and cells facing the bottom filter were fixed in methanol, stained with 500 nM DAPI (Sigma, D9564), and counted using ImageJ (NIH).

[2] = system: human perivascular stem cells; experiment: Human perivascular stem cells osteogenic differentiation; format: cell-based
Description: (§1) Source of Cells and Culture Conditions: Human perivascular stem cells were obtained as described above and were cultured in high-glucose Dulbecco's modified Eagle's medium (DMEM, Invitrogen) containing 20% fetal bovine serum (FBS; Thermo), 100 U/mL penicillin, and 100 μg/mL streptomycin (Sigma) at 37° C. in 5% CO2. Human cortical neuroepithelium stem (CTX) cells were cultured in DMEM:F12 supplemented with 0.03% Human albumin solution, 100 μg/ml human Apo-Transferrin, 16.2 μg/ml Putrescine DiHCl, 5 μg/ml Insulin, 60 ng/ml Progesterone, 2 mM L-Glutamine, 40 ng/ml Sodium Selinite, 10 ng/ml human bFGF, 20 ng/ml human Epidermal growth factor, and 100 nM 4-Hydroxytestosterone.
Human Perivascular Stem Cells Osteogenic Differentiation: Confluent perivascular stem cells were cultured in osteogenic differentiation medium (DMEM with 20% FBS, 20 μM ascorbic acid and 1.76 mM β-glycophosphate) and analyzed for the presence of calcium deposits after 4, 7, and 14 days. Calcium deposits were detected via fixation in 10% NBF and staining with 2% Alizarin Red.

[3] = system: human cortical neuroepithelium stem (CTX) cells; experiment: CTX cells chemotaxis assay; format: cell-based; conditions: 5 h
Description: as §1
CTX Cells Chemotaxis Assay: CTX cells (human cortical neuroepithelium stem cells) were grown to ˜80% confluence, made into a single cell suspension, and the migration of 3×10^4 cells per well towards peptide 1 was assayed over 5 h. Migrated cells were stained by 4′,6-diamidino-2-phenylindole and quantified with ImageJ (NIH). All of the data are means of quadruplicate determinations with standard deviations. The assay was performed on three separate occasions.

[4] = system: C57/BL6 mice, amputated third digit; experiment: Animal model of digit amputation (in vivo bone formation); set-up: species or system mouse
Description: Animal Model of Digit Amputation: Adult female 6- to 8-week-old C57/BL6 mice (n=4) were subjected to aseptic midsecond phalanx amputation of the third digit on both hind feet. At 0, 24, and 96 h after surgery 15 μL of 10 mM peptide 1 was injected into the footpad below the amputated digit using a 30-gauge needle. A second group of animals (n=4) were treated in the same way except that phosphate buffered saline (PBS) was injected instead of the peptide Animals were killed via cervical dislocation under isoflurane anesthesia at 14 days after surgery. Isolated toes were fixed in 10% neutral buffered formalin (NBF), embedded in paraffin and cut into 5 μm sections, before deparaffinization and staining with Alcian blue at pH 2.5, hematoxylin and eosin (H&E) or Masson's trichrome.

Row | Sequence | Chemotactic activity for progenitor cells [1] | Bone nodules in standard culture medium ([2]; 100 μM peptide, not seen without peptide) | Bone nodules in osteogenic differentiation medium ([2]; 1, 10 or 100 μM peptide, vs differentiation medium alone) | Migration of CTX cells compared to media without peptide ([3]; all concentrations of peptide, 3×10^4 cells per well) | Peptide concentration at which CTX cell migration was highest ([3]; range of concentrations) [µM] | In vivo bone formation at the amputated digit ([4]; 15 μL of 10 mM peptide injected into footpad at 0, 24, 96 h, tissue at 14 days, H&E/trichrome, vs buffer) | Alcian blue staining of sulfated glycosaminoglycans (GAG) ([4]; 15 μL of 10 mM peptide into footpad, 14 days, buffer group showed diffuse GAG staining)
1 | GPVGPSGPPGK (listed as Sus scrofa) [Peptide 2, 11-mer from porcine Collagen type III alpha 1, found in pepsin-digested UBM, chemically synthesized] | excellent chemotactic activity |  |  |  |  |  | 
2 | IAGVGGEKSGGF (listed as Sus scrofa) [Peptide 1, 12-mer from porcine Collagen type III alpha 1, found in pepsin-digested UBM, chemically synthesized] | excellent chemotactic activity | caused the formation of bone nodules | more bone nodules | increased migration | 1 | formation of a bone like growth on the side of the amputated digit | concentrated GAG positive staining only at the bone nodule
